Patent publication US20120213837A1, “COMPOSITIONS AND METHODS FOR BIOACTIVE COATINGS TO IMPROVE ALLOGRAFT INCORPORATION” (priority 2009, published 2012)
“Also recorded” adds a separate entry of the source. Values belong to the molecule of their own block, whether it stands above or below them.

Tests used:
[1] = test system: critical size calvarial bone defects; conditions: 3D PLAGA scaffolds delivering FTY720; cited from earlier work
[2] = test system: allograft-host bone interface; assay: H&E and Masson's trichrome staining of tibial defects; assay type: in vivo, Sprague Dawley rats; conditions: 6 weeks healing, vs U and C groups
Procedure: (§1) All animal surgeries were performed according to an approved protocol from the UVA Animal Care and Use Committee. Briefly, adult male Sprague Dawley rats (˜400 g) were randomly assigned to three different experimental groups: uncoated allograft (U), coated 1:12 PLAGA (C), and coated 1:12 PLAGA loaded with 1:200 FTY720 (C/L). Animals were anesthetized with isoflurane gas. Following anesthetization, the dorsal skin was sterilized with betadine and 70% ethanol. A small incision was made longitudinally over the midshaft of the tibia. Subperiosteal dissection was performed once the subcutaneous tissue was dissected over the anterior aspect of the tibia. […]
For CD45 staining to visualize leukocyte recruitment, four 7 μm-thick histological sections per sample (cryo-embedded) were blocked 3×10 minutes in PBS/saponin/BSA and immunolabeled with CD45 (BD Pharmingen) diluted 1:50 in PBS/saponin/BSA. […] To quantify changes in vascular remodeling (particularly recruitment of mural cells) in response to FTY720, SMA-positive cells that formed an obvious lumen were quantified in each tissue section. Total tissue area was measured in ImageJ, and the FTY720-mediated response was represented as a fraction of SMA-positive lumens per total tissue area. […]

[3] = in vivo; cited from earlier work
[4] = test system: arterioles; conditions: sustained release from 50:50 PLAGA films, 1:200 wt/wt; cited from earlier work
[5] = test system: CD45+ leukocytes; assay: CD45 immunostaining of tibial defect sections; assay type: in vivo, Sprague Dawley rats; conditions: 6 weeks, qualitative images
Procedure: as §1
(§2) For CD45 staining to visualize leukocyte recruitment, four 7 μm-thick histological sections per sample (cryo-embedded) were blocked 3×10 minutes in PBS/saponin/BSA and immunolabeled with CD45 (BD Pharmingen) diluted 1:50 in PBS/saponin/BSA. […] To quantify changes in vascular remodeling (particularly recruitment of mural cells) in response to FTY720, SMA-positive cells that formed an obvious lumen were quantified in each tissue section. Total tissue area was measured in ImageJ, and the FTY720-mediated response was represented as a fraction of SMA-positive lumens per total tissue area.

[6] = test system: SMA-positive lumens (mural cell recruitment); assay: Smooth muscle alpha-actin (SMA) immunostaining of tibial defect sections; assay type: in vivo, Sprague Dawley rats; conditions: 6 weeks, interface/allograft regions, vs U and C groups
Procedure: as §1, §2

[7] = test system: host-bone-allograft integrated structure (excised tibias); assay: Post-operative mechanical properties, compression in Instron 4511; assay type: in vivo, Sprague Dawley rats; conditions: 6 weeks post-op, compression 1 mm/min, vs U and C groups
Procedure: All animal surgeries were performed according to an approved protocol from the UVA Animal Care and Use Committee. Briefly, adult male Sprague Dawley rats (˜400 g) were randomly assigned to three different experimental groups: uncoated allograft (U), coated 1:12 PLAGA (C), and coated 1:12 PLAGA loaded with 1:200 FTY720 (C/L). Animals were anesthetized with isoflurane gas. Following anesthetization, the dorsal skin was sterilized with betadine and 70% ethanol. A small incision was made longitudinally over the midshaft of the tibia. Subperiosteal dissection was performed once the subcutaneous tissue was dissected over the anterior aspect of the tibia. A Dremel rotary tool with a Diamond Wheel accessory was used to make an 8 mm defect slightly distal to the tibial tubercle and the 8 mm allograft segment was inserted into the defect. A stab incision was made just medial to the patellar tendon and a 19.5 gauge needle was inserted into the intramedullary canal, through the allograft, into the distal intramedullary canal to resistance, and tamped flush to the bone. […]
A leading cause of allograft failure or post-operative complications includes mechanical instability at the bone-allograft interface. […] To determine the elastic modulus, the slope was calculated between the values of 0.07 to 0.08 strain, since this was the interval in which the elastic region existed in all the graphs.

[8] = In vitro release of 33P-labelled S1P from PLAGA-coated allografts; encapsulation efficiency; assay type: physicochemical
Procedure: Allograft samples were coated similarly to the above protocol with radio-labeled sphingosine-1-phosphate (S1P, Cayman Chemical, Ann Arbor Mich.) to measure drug release over a 14-day period. Specifically, 2.92 mg of S1P was resolubilized in MeCl to a final concentration of 2 mg/mL by frequent heating and vortexing. Using a conversion factor of 2.2×10^6 cpm/μCi and 1 μCi/μL, 6.8 μL of Phosphorus-33 (^33P) (Perkin Elmer, Inc., Waltham, Mass.) was added to the S1P solution. Next, 583 mg of 50:50 PLAGA was added to the S1P-^33P solution to achieve a 1:12 (wt./vol.) polymer-solvent ratio. The final solution had 2.92 mg of S1P, 6.8 μL of ^33P, and 583 mg of 50:50 PLAGA mixed in 7 mL of MeCl. The coated allografts were then placed into a glass scintillation vial containing 50 μL of simulated body fluid (SBF) with 4% fatty acid free (FAF) BSA. Following 24 hours incubation, the allografts were removed from the vials and the remaining 4% FAF-BSA SBF was mixed with 5 mL of EcoScintA biodegradable scintillation solution for quantifying drug release using the Beckman Coulter liquid scintillation counter. Allografts were then placed into a new glass vial containing fresh 4% FAF-BSA SBF. This cycle was repeated for a 14-day period to achieve cumulative measurements. Encapsulation efficiency (maximum amount of S1P that can be released) was quantified by placing allografts in MeCl to completely dissolve the drug-containing polymer solution.
To determine total amount of drug loaded into allograft implants and the kinetics of drug release, in vitro experiments were conducted utilizing allografts loaded with S1P-^33P (FIG. 3). Complete degradation of PLAGA occurs between 6-8 weeks. However, substantial S1P release was expected to occur earlier, given the bulk degradation profile of PLAGA. We found approximately 0.64 mg of the original 1 mg of S1P was actually loaded within the polymer-coated allograft (64% loading efficiency). After 14 days incubation, 0.57 mg of S1P was detected in the simulated body fluid (SBF). […]

[9] = in the absence of a carrier protein; cited from earlier work
[10] = test system: smooth muscle proliferation and migration; conditions: daily injections; cited from earlier work

SMILES: CCCCCCCCc1ccc(CCC(N)(CO)CO)cc1 [FTY720, Fingolimod]
osseous tissue ingrowth and proportion of mature smooth muscle cell-invested microvessels [1]: significantly increases | allograft-host bone integration, histology [2]: superior collagen alignment, osseous tissue generation along the outer edge of the allograft tissue, better preservation of inner cancellous porous regions, and preservation of allograft-tibial alignment | half-life [3]: approximately 7 days | microvascular remodeling (arterioles) [4]: promotes formation of new arterioles and structural enlargement of existing arterioles | number of CD45+ leukocytes within allograft-host bone interface [5]: reductions in the number of leukocytes; also recorded: significant reduction | number of blood vessels stained with smooth muscle alpha-actin [6]: significantly increased; also recorded: enhanced the number of smooth-muscle-invested vessels | elastic modulus [7]: statistically significant increases | ultimate compressive strength [7]: statistically significant increases

loading efficiency ([8]; 50:50 PLAGA 1:12 coated allograft): 64% | amount of S1P loaded within the polymer-coated allograft ([8]; of the original 1 mg of S1P, 50:50 PLAGA 1:12 coating): approximately 0.64 mg
SMILES: CCCCCCCCCCCCC/C=C/[C@@H](O)[C@@H](N)COP(=O)(O)O [S1P, sphingosine-1-phosphate]
release profile ([8]; 50:50 PLAGA coated allograft, SBF): initial burst release of drug was observed during the first five days | solubility in aqueous solutions [9]: insoluble | half-life in blood [3]: less than 1 hour

SMILES: CCCCCCCCc1cccc(NC(=O)[C@H](N)CCP(=O)(O)O)c1 [VPC44116]
smooth muscle proliferation and migration [10]: significantly decreased
